{"source": "patent US9532972B2", "about": "“Increasing taxane sensitivity in cancer cells” (UNIVERSITY OF CENTRAL FLORIDA RESEARCH FOUNDATION, INC., priority 2012, dated 2017)", "format_in_all_cases": "cell-based", "key": {"MCF7": {"test_system": "MCF7", "test": "Flow cytometry cell cycle analysis (propidium iodide DNA content)", "settings": "MCF7 cells, 2 μM docetaxel, 24 hrs", "method": "(§1) To confirm the results of the MTS assay, while further elucidating the link between LIMK1 expression and taxane sensitivity, the effects of taxane treatment on cell cycle were analyzed. […] Using flow cytometry to monitor DNA content, the percentages of cells in each phase of the cell cycle including the percentage of cells in the sub-G1 population (FIGS. 2A and B) were determined. […] Although after 24 hrs of treatment, the difference between cells lines became more apparent.\n(§2) In order to confirm the implication of LIMK1 induced resistance to taxane treatment, the expression of LIMK1 in each cell line was altered. […] Sensitivity to the taxane treatment was monitored by MTS assay.\n(§3) Cells were seeded into 60 mm dishes and transfected the following day with one of the previous constructs. […] At each time point, media and cells were collected, washed, and fixed in 70% EtOH at −20° C. for at least 30 mins. Cells were then washed and stained for 30 mins in PBS containing: 2% BSA; 0.1% Pluronic F-68 (Sigma); Propidium Iodide [80 ug/mL] (Sigma); RNase [100 ug/mL]. Data was collected using FACSCalibur and analyzed using Cell Quest and ModFit software."}, "PC-3": {"test_system": "PC-3", "test": "Flow cytometry cell cycle analysis (propidium iodide DNA content)", "settings": "PC-3 cells, 2 μM docetaxel, 24 hrs", "method": "as §1, §2, §3"}, "MDA-MB-231": {"test_system": "MDA-MB-231", "test": "Flow cytometry cell cycle analysis (propidium iodide DNA content)", "settings": "MDA-MB-231 cells, 2 μM docetaxel, 24 hrs", "method": "as §1, §3"}, "P69": {"test_system": "P69", "test": "Flow cytometry cell cycle analysis (propidium iodide DNA content)", "settings": "P69 cells, 2 μM docetaxel, 24 hrs", "method": "as §1, §3"}, "[1]": {"test_system": "cleaved caspases 3, cleaved caspases 9 and cleaved PARP", "test": "Western blot of apoptotic markers in docetaxel treated cell lysates", "source_text": "FIG. 5: Higher LIMK1 expression diminished Taxane induced apoptotic response. PC3 cells were transiently transfected with either LIMK1 targeting shRNA construct or scrambled shRNA construct. […] After 24 hrs of DTX treatment, cell were harvested and apoptotic markers were monitored by immunoblot. Cyt c Release: PC3 and MCF7 were transiently transfected with LIMK1 and Scrambled shRNA constructs, P69 cells were transiently transfected with LIMK1 expression vector, LIMK1-shRNA vector or control vector. […] Following treatment cells were harvested and cytosolic, mitochondrial, and nuclear fractions were isolated. Presence of Cyt c in the cytosol was monitored by immunoblot of cytosolic fraction. Densinometry was used to determine relative values.\nWestern blots were probed with the following antibodies: mouse anti-human-GAPDH (Sigma); mouse anti-FLAG (Sigma); rabbit anti-human-LIMK1 (Santa Cruz; Santa Cruz, Calif.); mouse anti-human LIMK1 (BD Pharmingen, San Diego, Calif.); rabbit anti-Cleaved Caspase 3/9 and anti-Cleaved PARP (Cell Signaling); rabbit anti-human-alpha-tubulin (Sigma). Mouse anti-Cytochrome c (R&D Systems). Rabbit anti-Prohibitin (Abcam). Rabbit anti-Bax (Santa Cruz). Rabbit anti-Bcl2 (Cell Signaling)"}}, "data": [{"smiles": "CC(=O)O[C@@]12CO[C@@H]1C[C@H](O)[C@@]1(C)C(=O)[C@H](O)C3=C(C)[C@@H](OC(=O)[C@H](O)[C@@H](NC(=O)OC(C)(C)C)c4ccccc4)C[C@@](O)([C@@H](OC(=O)c4ccccc4)[C@H]21)C3(C)C", "note": "[docetaxel]", "values": [{"measurement": "sub-G1 population", "setting": "MCF7", "result": 5, "unit": "%"}, {"measurement": "sub-G1 population", "setting": "PC-3", "result": 6, "unit": "%"}, {"measurement": "sub-G1 population", "setting": "MDA-MB-231", "result": 25, "unit": "%"}, {"measurement": "sub-G1 population", "setting": "P69", "result": 15, "unit": "%"}, {"measurement": "cleaved PARP", "setting": "[1]", "result": "increased levels"}, {"measurement": "cleaved caspases 3", "setting": "[1]", "result": "increased levels"}, {"measurement": "cleaved caspases 9", "setting": "[1]", "result": "increased levels"}]}]}
